Assay results as given in US11986493B2 (University of Pittsburgh—Of the Commonwealth System of …, priority 2013, dated 2024).

Test system: subjects with pulmonary hypertension
Assay: Systemic blood pressure (noninvasive) and heart rate monitoring during the study
Protocol: During the study right heart/pulmonary artery hemodynamics were measured as well as noninvasive systemic blood pressure monitoring and simultaneous RV echocardiography. Subjects were tested for the changes in pulmonary vascular resistance (PVR) measured by right heart catheterization and using thermodilution cardiac output measurement at time zero, at times 15, 30 and 45 minutes after completion of each nebulization dose.
Subjects were monitored closely for changes in blood pressure during the study. […] Subjects were continued to be monitored closely every 10 minutes for 2 hours.

[1] = Patient 1, nitrite 45 mg inhaled, 15 min
[2] = Patient 1, nitrite 45 mg inhaled, 30 min
[3] = Patient 1, nitrite 45 mg inhaled, 45 min
[4] = Patient 1, nitrite 45 mg inhaled, 60 min
[5] = Patient 1, nitrite 90 mg inhaled, 15 min
[6] = Patient 1, nitrite 90 mg inhaled, 30 min
[7] = Patient 1, nitrite 90 mg inhaled, 45 min
[8] = Patient 1, nitrite 90 mg inhaled, 60 min
[9] = Patient 2, nitrite 45 mg inhaled, 15 min
[10] = Patient 2, nitrite 45 mg inhaled, 30 min
[11] = Patient 2, nitrite 45 mg inhaled, 45 min
[12] = Patient 2, nitrite 45 mg inhaled, 60 min
[13] = Patient 2, nitrite 90 mg inhaled, 15 min
[14] = Patient 2, nitrite 90 mg inhaled, 30 min
[15] = Patient 2, nitrite 90 mg inhaled, 45 min
[16] = Patient 2, nitrite 90 mg inhaled, 60 min
[17] = Patient 3, nitrite 45 mg inhaled, 15 min
[18] = Patient 3, nitrite 45 mg inhaled, 30 min
[19] = Patient 3, nitrite 45 mg inhaled, 45 min
[20] = Patient 3, nitrite 45 mg inhaled, 60 min
[21] = Patient 3, nitrite 90 mg inhaled, 15 min
[22] = Patient 3, nitrite 90 mg inhaled, 30 min
[23] = Patient 3, nitrite 90 mg inhaled, 45 min
[24] = Patient 3, nitrite 90 mg inhaled, 60 min

O=NO [nitrite, sodium nitrite]
HR [1]: 81 | Systemic DBP [1]: 71 | Systemic SBP [1]: 109 | Systemic mBP [1]: 83.68 | HR [2]: 83 | Systemic DBP [2]: 78 | Systemic SBP [2]: 108 | Systemic mBP [2]: 88.01 | HR [3]: 82 | Systemic DBP [3]: 72 | Systemic SBP [3]: 109 | Systemic mBP [3]: 84.34 | HR [4]: 88 | Systemic DBP [4]: 78 | Systemic SBP [4]: 108 | Systemic mBP [4]: 88.01 | HR [5]: 93 | Systemic DBP [5]: 67 | Systemic SBP [5]: 97 | Systemic mBP [5]: 77.01 | HR [6]: 93 | Systemic DBP [6]: 66 | Systemic SBP [6]: 102 | Systemic mBP [6]: 78.01 | HR [7]: 94 | Systemic DBP [7]: 62 | Systemic SBP [7]: 102 | Systemic mBP [7]: 75.34 | HR [8]: 92 | Systemic DBP [8]: 67 | Systemic SBP [8]: 105 | Systemic mBP [8]: 79.68 | HR [9]: 74 | Systemic DBP [9]: 82 | Systemic SBP [9]: 136 | Systemic mBP [9]: 100.01 | HR [10]: 73 | Systemic DBP [10]: 75 | Systemic SBP [10]: 137 | Systemic mBP [10]: 95.68 | HR [11]: 75 | Systemic DBP [11]: 75 | Systemic SBP [11]: 137 | Systemic mBP [11]: 95.68 | HR [12]: 77 | Systemic DBP [12]: 68 | Systemic SBP [12]: 132 | Systemic mBP [12]: 89.34 | HR [13]: 74 | Systemic DBP [13]: 76 | Systemic SBP [13]: 142 | Systemic mBP [13]: 98.01 | HR [14]: 74 | Systemic DBP [14]: 77 | Systemic SBP [14]: 132 | Systemic mBP [14]: 95.34 | HR [15]: 76 | Systemic DBP [15]: 81 | Systemic SBP [15]: 141 | Systemic mBP [15]: 101.01 | HR [16]: 77 | Systemic DBP [16]: 78 | Systemic SBP [16]: 143 | Systemic mBP [16]: 99.68 | HR [17]: 63 | Systemic DBP [17]: 55 | Systemic SBP [17]: 96 | Systemic mBP [17]: 68.67 | HR [18]: 51 | Systemic DBP [18]: 56 | Systemic SBP [18]: 95 | Systemic mBP [18]: 69.01 | HR [19]: 67 | Systemic DBP [19]: 59 | Systemic SBP [19]: 92 | Systemic mBP [19]: 70.01 | HR [20]: 63 | Systemic DBP [20]: 52 | Systemic SBP [20]: 106 | Systemic mBP [20]: 70.01 | HR [21]: 68 | Systemic DBP [21]: 54 | Systemic SBP [21]: 100 | Systemic mBP [21]: 69.34 | HR [22]: 71 | Systemic DBP [22]: 58 | Systemic SBP [22]: 102 | Systemic mBP [22]: 72.68 | HR [23]: 70 | Systemic DBP [23]: 54 | Systemic SBP [23]: 100 | Systemic mBP [23]: 69.34 | HR [24]: 72 | Systemic DBP [24]: 59 | Systemic SBP [24]: 103 | Systemic mBP [24]: 73.68 | HR (Patient 4, nitrite 45 mg inhaled, 15 min): 72
